What was measured:
hPTPRA = biological target: T1, hPTPRA (Homo sapiens, UniProt P18433); test: In vitro PTPase assay (DiFMUP), PTPRA; assay type: biochemical; conditions: 60-min preincubation
T1 construct: Recombinant proteins corresponding to the entire intracellular regions (ICRs) of PTPRZ1, PTPRA, and PTPRM; made in house; host or cells: baculovirus-silkworm expression system
Method: (§1) Figure 4 NAZ2329, an allosteric inhibitor of R5 RPTP subfamily members. (A) Structure of NAZ2329. (B) Effect of preincubation of NAZ2329 on its inhibitory activity against PTPRZ. Recombinant human PTPRZ1 enzyme (the whole intracellular region) was premixed with NAZ2329 for the indicated times and followed by addition of a fluorogenic DiFMUP (non-specific PTP substrate, 6,8-difluoro-4-methylumbiliferyl phosphate) to measure PTP inhibitory activity. (C) Time dependence. The PTPRZ1 enzyme was added to the inhibitor–substrate mixture, and the inhibitory activity was determined at each time point relative to the vehicle control. (D) Reversibility of inhibition. […] The mixture was then 20-fold diluted, and recovered PTP activity was expressed as the relative activity compared with the vehicle-treated enzyme. […] PTPRZ1 enzymes were preincubated with NAZ2329 for 60 min, and the PTP activity was measured using DiFMUP. […]
(§2) Recombinant proteins corresponding to the entire intracellular regions (ICRs) of PTPRZ1, PTPRA, and PTPRM were expressed using a baculovirus-silkworm expression system, and purified as described. The ICRs of PTPRG, PTPRS, and PTPRB and the catalytic domains of PTPN1 and PTPN6 were expressed as glutathione-S-transferase (GST) fusion proteins from each pGEX plasmid in Escherichia coli strain BL21 (ref. [6]). […]

hPTPRS = biological target: T2, hPTPRS (Homo sapiens, UniProt Q13332); test: In vitro PTPase assay (DiFMUP), PTPRS; assay type: biochemical; conditions: 60-min preincubation
T2 construct: The ICRs of PTPRG, PTPRS, and PTPRB and the catalytic domains of PTPN1 and PTPN6; GST (N); made in house; host or cells: Escherichia coli BL21
T2 sequence (Q13332 1304-1948 limits assumed): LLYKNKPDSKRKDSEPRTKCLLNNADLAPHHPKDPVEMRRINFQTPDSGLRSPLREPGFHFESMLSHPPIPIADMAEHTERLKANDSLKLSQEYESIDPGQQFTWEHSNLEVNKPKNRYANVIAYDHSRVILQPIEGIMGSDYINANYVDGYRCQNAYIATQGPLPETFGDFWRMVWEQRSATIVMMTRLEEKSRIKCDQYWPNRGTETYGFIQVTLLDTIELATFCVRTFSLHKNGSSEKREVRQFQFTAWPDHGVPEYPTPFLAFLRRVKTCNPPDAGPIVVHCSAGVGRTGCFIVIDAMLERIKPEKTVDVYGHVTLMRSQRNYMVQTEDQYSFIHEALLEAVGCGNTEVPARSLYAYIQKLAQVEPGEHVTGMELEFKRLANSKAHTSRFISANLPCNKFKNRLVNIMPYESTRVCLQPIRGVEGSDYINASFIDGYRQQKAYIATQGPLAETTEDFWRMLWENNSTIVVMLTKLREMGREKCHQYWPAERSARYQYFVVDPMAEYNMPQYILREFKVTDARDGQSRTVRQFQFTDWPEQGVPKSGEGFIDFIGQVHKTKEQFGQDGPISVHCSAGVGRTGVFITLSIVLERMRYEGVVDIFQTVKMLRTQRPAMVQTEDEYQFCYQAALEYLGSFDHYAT
Method: as §1, §2

IC50 (hPTPRA): 35.7 µM
IC50 (hPTPRS): 23.7 µM
Structure (SMILES): CCOc1ccc(C(F)(F)F)cc1CSc1ccsc1C(=O)NS(=O)(=O)c1ccccc1 [NAZ2329]
